The source of these data is ChEMBL document CHEMBL1201862, “PubChem BioAssay data set” (2004).

Holding throughout (assay): NCI anticancer screen, dose series, 48 h
For assay [1], the system named is CAKI-1.
Assay [2] concerns COLO 205.
In assay [3] the test system is EKVX.
In assay [4] the test system is HCC 2998.
Assay [5] has as its system HOP-62.
In assay [6] the test system is HT-29.
For assay [7], the system named is KM12.
The test system of assay [8] is M14.
Assay [9] has as its system NCI-H23.
The subject of assay [10] is OVCAR-4.
In assay [11] the test system is OVCAR-5.
In assay [12] the test system is OVCAR-8.
The test system of assay [13] is RXF 631.
Assay [14] has as its system SK-MEL-2.
For assay [15], the system named is SN12C.
Assay [16] relates to SNB-75.
Assay [17] deals with TK-10.
Assay [18] has as its system UACC-257.

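96-well plates; 48 h exposure; 5 concentrations. Endpoints by linear interpolation between flanking doses. Not reached: highest tested concentration assigned. At the GI50, growth is halved.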 Active and inactive are the calls of the source. Rule as the data show it: active = GI50 up to about 1.1 µM and inactive = higher.

For the molecule `COc1cc2c(cc1OC(=O)CC(C)O)C1C(OC2=O)C(OC(C)=O)C=C2CCN(C)[C@H]21` (stereo not given in full), the GI50 in [1] is 71.1 µM (inactive); in assay [2], 81.3 µM (inactive); in assay [3] it was 65.8 µM (inactive); in assay [4], 26.2 µM (inactive); in [5], 21.1 µM (inactive); in [6], > 100 µM (inactive). Besides, the GI50 in [7] is > 100 µM (inactive); in assay [8], 68.5 µM (inactive); in assay [9], 33.1 µM (inactive); in [10], 40.5 µM (inactive); in assay [11], > 100 µM (inactive); in assay [12], 39.9 µM (inactive). In addition, the GI50 in assay [13] is 31 µM (inactive); in assay [14] it was 15.9 µM (inactive); in assay [15], 38.6 µM (inactive); in assay [16] it was 16.1 µM (inactive); in assay [17], 26.3 µM (inactive); in [18], > 100 µM (inactive).

Turning to `COc1cc(/C=C\c2ccc(Cl)cc2)cc(OC)c1OC`, the GI50 was 0.384 µM (active) in assay [1]; 0.443 µM (active) in assay [2]; 0.439 µM (active) in assay [3]; 1.73 µM (inactive) in assay [4]; 0.302 µM (active) in assay [5]; 0.0459 µM (active) in [6]. The GI50 is 0.173 µM (active) in assay [7]; 0.0647 µM (active) in assay [8]; 0.247 µM (active) in [9]; 5.74 µM (inactive) in assay [10]; 26.3 µM (inactive) in assay [11]; 0.363 µM (active) in assay [12]. Further, the GI50 in [13] was 0.118 µM (active); in assay [14] it was 0.245 µM (active); in assay [15] it was 0.508 µM (active); in [16], 0.188 µM (active); in assay [17], 38.9 µM (inactive); in assay [18], 0.804 µM (active).

For `C/C(=C1/N=C(c2cc([N+](=O)[O-])ccc2Cl)N(c2ccc(Br)cc2)C1=O)c1ccc(N(CCC#N)CCC#N)cc1C`, the GI50 was 52.4 µM (inactive) in assay [1]; 32.2 µM (inactive) in assay [2]; > 100 µM (inactive) in [3]; 32.1 µM (inactive) in assay [4]; 19.8 µM (inactive) in assay [5]; 36.9 µM (inactive) in [6]. Also, the GI50 in [7] is 15.1 µM (inactive); in assay [8], 13.6 µM (inactive); in assay [9] it was 42.7 µM (inactive); in assay [10], 38.8 µM (inactive); in assay [11], 50.9 µM (inactive); in assay [12], 43.5 µM (inactive). In addition, the GI50 is > 100 µM (inactive) in assay [13]; 21.8 µM (inactive) in [14]; 40.4 µM (inactive) in assay [15]; > 100 µM (inactive) in assay [16]; 68.2 µM (inactive) in assay [17]; 57.5 µM (inactive) in assay [18].

`Cc1ccc(NC(=O)C(=O)CC(=O)C2CCOC2=O)c(C)c1` (stereo not given): the GI50 in [1], in [2], in assay [3], in assay [4], in assay [5] and in assay [6] was > 100 µM (inactive) each time. For the same molecule, the GI50 in [7], in [8], in [9], in assay [10], in [11] and in assay [12] was > 100 µM (inactive) throughout. Further, the GI50 is > 100 µM (inactive) in assay [13]; > 100 µM (inactive) in assay [14]; > 100 µM (inactive) in [15]; 76.2 µM (inactive) in [16]; > 100 µM (inactive) in [17]; > 100 µM (inactive) in assay [18].

`O=c1oc2c(O)c(O)cc3c(=O)oc4c(O)c(O)cc1c4c23` [ELLAGIC ACID]: the GI50 in assay [1] is < 0.01 µM (active); in assay [2], > 10 µM (inactive); in assay [3], 57.4 µM (inactive); in assay [4], > 10 µM (inactive); in assay [5], > 10 µM (inactive); in [6], > 10 µM (inactive). Besides, the GI50 in [7] is > 10 µM (inactive); in assay [8], 18.5 µM (inactive); in assay [9], 47.9 µM (inactive); in [10], 31.6 µM (inactive); in [11] it was > 10 µM (inactive); in assay [12], 18.6 µM (inactive). In addition, the GI50 was > 10 µM (inactive) in [13]; 78.2 µM (inactive) in assay [14]; 38.1 µM (inactive) in assay [15]; 32.4 µM (inactive) in [16]; 75.2 µM (inactive) in assay [17]; > 10 µM (inactive) in assay [18].
